Experimental data reported in patent US20090022803A1, “Oral Formulations For Delivery of Catecholic Butanes Including Ndga Compounds” (priority 2005, published 2009).
Like-named read-outs stand apart in the source and are kept apart here.

Type: physicochemical
Protocol: A 10 mL solution of M4N at a concentration of about 10 mg/mL in 40% BP-β-CD was made as follows. About 10 mL of the 40% HP-β-CD solution were added to a glass beaker containing a stir bar. The beaker was placed on a magnetic plate and the stir bar was set to stir at medium speed. About […] of M4N were slowly added to the 40% HP-β-CD in the center of the beaker with the aid of a spatula. The M4N/40% HP-β-CD mixture was stirred for 2 hr or until all M4N was uniformly suspended without any clumps being present. The M4N/40% HP-β-CD mixture was optionally heated at 80° C. for about 30 min. (or longer if a larger volume of solution was desired, for example, 1 hr at 80° C. for 100 mL of the M4N/HP-β-CD mixture), or longer as needed to ensure complete dissolution of M4N. […] The final M4N/40% HP-β-CD solution was stored at room temperature and was kept protected from light. This process may be scaled up or down to obtain the requisite volume or concentration of M4N. Formulations containing M4N in other cyclodextrin solutions may be similarly made, such as, for example, by substituting HP-β-CD in the process described above with other cyclodextrins. […]
A 10 mL solution of M4N at a concentration of about 10 mg/mL in 50% HP-β-CD/0.5% HPMC was made as follows. About 10 mL of the 50% HP-β-CD/0.5% HPMC solution were added to a glass beaker containing a stir bar. The beaker was placed on a magnetic plate and the stir bar was set to stir at medium speed. About 100 mg of M4N were slowly added to the 50% HP-β-CD/0.5% HPMC in the center of the beaker with the aid of a spatula. The M4N/50% HP-β-CD/0.5% HPMC mixture was stirred for 24 hr or until all M4N was uniformly suspended without any clumps being present. The M4N/50% HP-β-CD/0.5% HPMC mixture was heated at about 90° C. for about 30 min. (or longer if a larger volume of solution was desired, for example, 1 hr at 90° C. for 500 mL of the M4N/50% HP-β-CD/0.5% HPMC mixture), or longer as needed to ensure complete dissolution of M4N. […] The final M4N/50% HP-β-CD/0.5% HPMC solution was stored at room temperature and was kept protected from light.
A 10 mL solution of M4N at a concentration of about 20 mg/mL in 5% EC (w/v) (the “EC formulation”) was made as follows. About 10 mL of 5% EC formulation, made as described above, were added to a glass beaker containing a stir bar. The beaker was placed on a magnetic plate and the stir bar was set to stir at medium speed, and covered with a round Teflon® cover. About 200 mg of M4N were slowly added to the 5% EC formulation in the center of the beaker with the aid of a spatula to prevent M4N from sticking to the beaker wall. The M4N/EC mixture was stirred for 2 hr or until all M4N had dissolved or was uniformly suspended without any clumps being present. The M4N/EC mixture was heated at about 60° C. for about 30 min. (or longer if a larger volume of solution was desired, for example, 1 hr at 60° C. for 500 mL of the M4N/EC mixture), or longer as needed to ensure complete dissolution of M4N. […] The final M4N/EC solution was stored at room temperature and was kept protected from light.
A 10 mL solution of M4N at a concentration of about 50 mg/mL in sesame oil was made as follows. About 10 mL of sesame oil were added to a glass beaker containing a stir bar. The beaker was placed on a magnetic plate and the stir bar was set to stir at medium speed. About 500 mg of M4N were slowly added to the sesame oil in the center of the beaker with the aid of a spatula to prevent M4N from sticking to the beaker wall. The M4N/sesame oil mixture was stirred for about 2 hr or until all M4N had dissolved or was uniformly suspended without any clump being present. The M4N/sesame oil mixture was heated at about 60° C. for about 30 min. (or longer if a larger volume of solution was desired, for example, 1 hr at 60° C. for 500 mL of the M4N/sesame oil mixture), or longer as need to ensure complete dissolution of M4N. […]

[1] = M4N 13.3 mg/mL in 27% HP-β-CD, 33% PEG 400 (v/v)
[2] = M4N 13.3 mg/mL in 27% HP-β-CD, 33% Tween ® 80 (v/v)
[3] = M4N 16.7 mg/mL in 13% HP-β-CD, 67% PEG 300 (v/v)
[4] = M4N 19.3 mg/mL in 10% HP-β-CD, 77% PEG 300 (v/v)
[5] = M4N 50 mg/mL in 50% HP-β-CD, 1.25% PVP (w/v)
For Dissolution After Cool Down in this document: key: N represents 'No'; Y represents 'Yes.'.

What does the source list for `COc1ccc(C[C@@H](C)[C@@H](C)Cc2ccc(OC)c(OC)c2)cc1OC` [Formulation M4N, meso-1,4-bis(3,4-dimethoxyphenyl)-2,3-dimethylbutane]?
Dissolution After Cool Down [1]: Y; Dissolution After Rotation [1]: N; Dissolution After Heating at X° C. (M4N 13.3 mg/mL in 27% HP-β-CD, 33% PEG 400 (v/v), 60°): Y at 60°; Dissolution After Cool Down [2]: N; Dissolution After Rotation [2]: N; Dissolution After Heating at X° C. (M4N 13.3 mg/mL in 27% HP-β-CD, 33% Tween ® 80 (v/v), 60°): Y at 60°; Dissolution After Rotation (M4N 14 mg/mL in 40% HP-β-CD): N; Dissolution After Heating at X° C. (M4N 14 mg/mL in 40% HP-β-CD, 80°): N at 80°; Dissolution After Rotation (M4N 16 mg/mL in 40% HP-β-CD): N; Dissolution After Heating at X° C. (M4N 16 mg/mL in 40% HP-β-CD, 80°): N at 80°; Dissolution After Cool Down [3]: N; Dissolution After Rotation [3]: N; Dissolution After Heating at X° C. (M4N 16.7 mg/mL in 13% HP-β-CD, 67% PEG 300 (v/v), 60°): Y at 60°; Dissolution After Cool Down [4]: N; Dissolution After Rotation [4]: N; Dissolution After Heating at X° C. (M4N 19.3 mg/mL in 10% HP-β-CD, 77% PEG 300 (v/v), 60°): Y at 60°; Dissolution After Cool-Down (M4N 20 mg/mL in 5% EC in EtOH): Y; Dissolution After Rotation (M4N 20 mg/mL in 5% EC in EtOH): N; Dissolution After Rotation (M4N 20 mg/mL in 30% HP-β-CD): N; Dissolution After Heating at X° C. (M4N 20 mg/mL in 30% HP-β-CD, 90°): N at 90°; Dissolution After Rotation (M4N 20 mg/mL in 40% HP-β-CD): N; Dissolution After Heating at X° C. (M4N 20 mg/mL in 40% HP-β-CD, 80°): N at 80°; Dissolution After Rotation (M4N 20 mg/mL in 50% HP-β-CD): N; Dissolution After Rotation (M4N 20 mg/mL in 50% HP-β-CD, 0.5% CMC): Suspension; Dissolution After Rotation (M4N 20 mg/mL in 50% HP-β-CD, 0.5% HPMC, other experiment, no heat): Suspension; Dissolution After Heating at X° C. (M4N 20 mg/mL in 50% HP-β-CD, 90°): N at 90°; Dissolution After Cool-Down (M4N 20 mg/mL in Corn Oil): Y; Dissolution After Cool-Down (M4N 20 mg/mL in Sesame Oil): Y; Dissolution After Cool-Down (M4N 24.3 mg/mL in 75% Sesame Oil, 9% Tween ® 20, 16% Glycerol): Y; Dissolution After Cool-Down (M4N 29 mg/mL in 89% Sesame Oil, 11% Tween ® 20): Y; Dissolution After Cool-Down (M4N 30 mg/mL in 5% EC in EtOH): N; Dissolution After Rotation (M4N 30 mg/mL in 5% EC in EtOH): N; Dissolution After Cool-Down (M4N 30 mg/mL in Olive Oil): N; Dissolution After Cool-Down (M4N 30 mg/mL in Sesame Oil): Y; Dissolution After Cool-Down (M4N 30 mg/mL in Soybean Oil): N; Dissolution After Cool-Down (M4N 40 mg/mL in 50% Peppermint Oil, 50% PEG 300): Y; Dissolution After Cool-Down (M4N 40 mg/mL in 50% Peppermint Oil, 50% PEG 400): Y; Dissolution After Cool-Down (M4N 40 mg/mL in 50% Peppermint Oil, 50% Sesame Oil): Y; Dissolution After Cool-Down (M4N 40 mg/mL in 50% Peppermint Oil, 50% Tween ® 20): Y; Dissolution After Cool-Down (M4N 40 mg/mL in 85% Sesame Oil, 15% Tween ® 20): N; Dissolution After Cool-Down (M4N 40 mg/mL in Corn Oil): Y; Dissolution After Cool-Down (M4N 40 mg/mL in Peppermint Oil): Y; Dissolution After Rotation (M4N 50 mg/mL in 2.3% HPMC): N; Dissolution After Cool-Down (M4N 50 mg/mL in 5% EC in EtOH): N; Dissolution After Rotation (M4N 50 mg/mL in 5% EC in EtOH): N; Dissolution After Rotation (M4N 50 mg/mL in 15% α-CD): N; Dissolution After Heating at X° C. (M4N 50 mg/mL in 15% α-CD, 90°): N at 90°; Dissolution After Rotation (M4N 50 mg/mL in 20% HP-β-CD in saline): N; Dissolution After Rotation (M4N 50 mg/mL in 30% HP-β-CD): N; Dissolution After Heating at X° C. (M4N 50 mg/mL in 30% HP-β-CD, 90°): N at 90°; Dissolution After Rotation (M4N 50 mg/mL in 40% HP-β-CD): N; Dissolution After Heating at X° C. (M4N 50 mg/mL in 40% HP-β-CD, 80°): N at 80°; Dissolution After Rotation (M4N 50 mg/mL in 50% HP-β-CD): N; Dissolution After Rotation (M4N 50 mg/mL in 50% HP-β-CD, 0.5% HPMC): N; Dissolution After Rotation (M4N 50 mg/mL in 50% HP-β-CD, 0.5% HPMC, other experiment, no heat): Suspension; Dissolution After Heating at X° C. [5]: N; Dissolution After Rotation [5]: N; Dissolution After Heating at X° C. (M4N 50 mg/mL in 50% HP-β-CD, 90°): N at 90°; Dissolution After Cool-Down (M4N 50 mg/mL in Camillia Oil): N
